Laboratory results from a compilation of properties of binary mixtures (doi:10.1021/je200600p).

Assay: xn = mol fraction of the nth substance listed
Conditions: 101 kPa

CCCC[n+]1ccn(C)c1.COP(=O)([O-])OC + CCO
viscosity [mPa·s]
Conditions | 293.15 K | 298.15 K | 303.15 K | 308.15 K | 313.15 K | 318.15 K | 323.15 K | 328.15 K | 333.15 K
x2 = 0.201 | 396 | 284 | 210 | – | 119 | 92.7 | 73.3 | 59.06 | 48.16
x2 = 0.399 | – | – | 88.9 | 69.9 | – | – | – | – | –
x2 = 0.6 | 42.1 | 34.3 | 28.18 | 23.56 | 19.87 | 16.97 | 14.59 | 12.66 | 11.06
x2 = 0.8 | 8.84 | 7.704 | 6.718 | – | – | 4.711 | – | – | 3.454

CC[n+]1ccn(C)c1.COP(=O)([O-])OC + CCO
viscosity [mPa·s]
Conditions | 293.15 K | 298.15 K | 303.15 K | 308.15 K | 313.15 K | 318.15 K | 323.15 K | 328.15 K | 333.15 K
x2 = 0.199 | 190.6 | 142.7 | 109.5 | 85.8 | 68.4 | 55.53 | 45.75 | – | 32.27
x2 = 0.398 | 87.3 | – | – | 45 | 37.37 | – | 26.44 | 22.64 | 19.56
x2 = 0.598 | 27.63 | – | 19.83 | 17.05 | 14.8 | – | 11.36 | 10.04 | 8.951
x2 = 0.798 | 6.898 | 6.127 | 5.471 | – | 4.425 | 4.004 | 3.634 | 3.318 | 3.037

CCCC[n+]1ccn(C)c1.COP(=O)([O-])OC + CO
viscosity [mPa·s]
Conditions | 293.15 K | 298.15 K | 303.15 K | 308.15 K | 313.15 K | 318.15 K | 323.15 K | 328.15 K | 333.15 K
x2 = 0.203 | 395 | 282 | 206 | 154.4 | 117.9 | 91.5 | 72.5 | 58.3 | 47.6
x2 = 0.404 | 150.1 | 113.3 | 87.5 | – | 54.86 | – | 36.49 | 30.37 | 25.51
x2 = 0.6 | 38.6 | 31.59 | 26.19 | 21.99 | 18.59 | 15.94 | 13.78 | 11.99 | 10.48
x2 = 0.8 | – | 6.267 | 5.536 | 4.923 | – | 3.972 | 3.665 | 3.338 | 3.051

CC[n+]1ccn(C)c1.COP(=O)([O-])OC + CO
viscosity [mPa·s]
Conditions | 293.15 K | 298.15 K | 303.15 K | 308.15 K | 313.15 K | 318.15 K | 323.15 K | 328.15 K | 333.15 K
x2 = 0.198 | 197.6 | 147.8 | 112.7 | 88 | 70.2 | 56.83 | 46.73 | 39.02 | 32.96
x2 = 0.399 | 77.9 | 61.74 | 49.69 | 40.72 | 33.84 | 28.41 | 24.24 | – | –
x2 = 0.598 | 24.32 | – | 17.64 | 15.26 | 13.28 | 11.67 | 10.3 | 9.132 | 8.188
x2 = 0.799 | 5.308 | 4.769 | 4.309 | 3.911 | 3.566 | – | 2.998 | 2.763 | 2.555

CCCC[n+]1ccn(C)c1.COP(=O)([O-])OC + O
viscosity [mPa·s]
Conditions | 293.15 K | 298.15 K | 303.15 K | 308.15 K | 313.15 K | 318.15 K | 323.15 K | 328.15 K | 333.15 K
x2 = 0.201 | 594 | 410 | – | 212 | 157.5 | 119.7 | 92.7 | 73.1 | 58.55
x2 = 0.398 | 356 | – | 181.6 | 134.7 | 102 | – | 62.07 | – | 40.4
x2 = 0.601 | 148.3 | 108.5 | – | 62.54 | 48.93 | 39.05 | 31.67 | 26.05 | 21.69
x2 = 0.799 | 39.94 | 30.68 | 24.17 | 19.42 | – | 13.14 | 11.05 | 9.37 | 8.037

CC[n+]1ccn(C)c1.COP(=O)([O-])OC + O
viscosity [mPa·s]
Conditions | 293.15 K | 298.15 K | 303.15 K | 308.15 K | 313.15 K | 318.15 K | 323.15 K | 328.15 K | 333.15 K
x2 = 0.198 | – | – | – | 119.7 | 93 | – | 59.37 | 48.61 | –
x2 = 0.399 | 194.9 | 143.4 | 108.1 | 83.5 | 65.74 | – | 42.99 | – | 29.81
x2 = 0.6 | 98.6 | 74.5 | 57.7 | 45.45 | 36.43 | 29.68 | 24.55 | 20.58 | 17.46
x2 = 0.799 | 32.35 | 25.47 | 20.44 | 16.68 | 13.81 | – | 9.81 | 8.405 | 7.264
